The test system of assay [1] is LNCaP prostate cancer cell. Put plainly: LNCaP cell viability (CellTiter-Glo). The assay is classed as cell-based. To be noted: Homo sapiens, 72 h; LNCaP cell viability, 3 days, CellTiter-Glo; Table 4. In outline:
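LNCaP cells (5000/well, RPMI 1640 + 10% FBS, 37 °C) treated with compounds in 12-point 3-fold serial dilution for three days. Viability read by CellTiter-Glo luminescence, normalized to untreated cells; IC50 from least-squares nonlinear regression.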
(ATP-based viability assays read luminescence as a measure of living cells.)

The target of assay [2] is P300 (Homo sapiens, UniProt Q09472). Nature of the assay: percentage of inhibition (degradation) of p300 at 10 nM, Tables 2-4. The assay is classed as cell-based. To be noted: p300, 10 nM; Table 4; read-out: Degradation (10 nM). Further details: LNCaP or 22RV1 cells that express CBP/P300 proteins were treated with GNE-781 or the bivalent compounds; endogenous in cells; host or cells: LNCaP or 22RV1 (not given). A digest of the protocol:
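Degradation was measured at 10 nM. Cells or tissue were lysed in RIPA with protease and phosphatase inhibitors for 30 min at 4 °C and cleared, and protein was quantified by BCA. Lysates were resolved by SDS-PAGE, detected by chemiluminescent immunoblot, and bands were quantified by densitometry.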

Each structure is given as a SMILES string.

For orientation: IC50 means the midpoint of a concentration-inhibition curve.

Sequence of P300 (Q09472 whole entry): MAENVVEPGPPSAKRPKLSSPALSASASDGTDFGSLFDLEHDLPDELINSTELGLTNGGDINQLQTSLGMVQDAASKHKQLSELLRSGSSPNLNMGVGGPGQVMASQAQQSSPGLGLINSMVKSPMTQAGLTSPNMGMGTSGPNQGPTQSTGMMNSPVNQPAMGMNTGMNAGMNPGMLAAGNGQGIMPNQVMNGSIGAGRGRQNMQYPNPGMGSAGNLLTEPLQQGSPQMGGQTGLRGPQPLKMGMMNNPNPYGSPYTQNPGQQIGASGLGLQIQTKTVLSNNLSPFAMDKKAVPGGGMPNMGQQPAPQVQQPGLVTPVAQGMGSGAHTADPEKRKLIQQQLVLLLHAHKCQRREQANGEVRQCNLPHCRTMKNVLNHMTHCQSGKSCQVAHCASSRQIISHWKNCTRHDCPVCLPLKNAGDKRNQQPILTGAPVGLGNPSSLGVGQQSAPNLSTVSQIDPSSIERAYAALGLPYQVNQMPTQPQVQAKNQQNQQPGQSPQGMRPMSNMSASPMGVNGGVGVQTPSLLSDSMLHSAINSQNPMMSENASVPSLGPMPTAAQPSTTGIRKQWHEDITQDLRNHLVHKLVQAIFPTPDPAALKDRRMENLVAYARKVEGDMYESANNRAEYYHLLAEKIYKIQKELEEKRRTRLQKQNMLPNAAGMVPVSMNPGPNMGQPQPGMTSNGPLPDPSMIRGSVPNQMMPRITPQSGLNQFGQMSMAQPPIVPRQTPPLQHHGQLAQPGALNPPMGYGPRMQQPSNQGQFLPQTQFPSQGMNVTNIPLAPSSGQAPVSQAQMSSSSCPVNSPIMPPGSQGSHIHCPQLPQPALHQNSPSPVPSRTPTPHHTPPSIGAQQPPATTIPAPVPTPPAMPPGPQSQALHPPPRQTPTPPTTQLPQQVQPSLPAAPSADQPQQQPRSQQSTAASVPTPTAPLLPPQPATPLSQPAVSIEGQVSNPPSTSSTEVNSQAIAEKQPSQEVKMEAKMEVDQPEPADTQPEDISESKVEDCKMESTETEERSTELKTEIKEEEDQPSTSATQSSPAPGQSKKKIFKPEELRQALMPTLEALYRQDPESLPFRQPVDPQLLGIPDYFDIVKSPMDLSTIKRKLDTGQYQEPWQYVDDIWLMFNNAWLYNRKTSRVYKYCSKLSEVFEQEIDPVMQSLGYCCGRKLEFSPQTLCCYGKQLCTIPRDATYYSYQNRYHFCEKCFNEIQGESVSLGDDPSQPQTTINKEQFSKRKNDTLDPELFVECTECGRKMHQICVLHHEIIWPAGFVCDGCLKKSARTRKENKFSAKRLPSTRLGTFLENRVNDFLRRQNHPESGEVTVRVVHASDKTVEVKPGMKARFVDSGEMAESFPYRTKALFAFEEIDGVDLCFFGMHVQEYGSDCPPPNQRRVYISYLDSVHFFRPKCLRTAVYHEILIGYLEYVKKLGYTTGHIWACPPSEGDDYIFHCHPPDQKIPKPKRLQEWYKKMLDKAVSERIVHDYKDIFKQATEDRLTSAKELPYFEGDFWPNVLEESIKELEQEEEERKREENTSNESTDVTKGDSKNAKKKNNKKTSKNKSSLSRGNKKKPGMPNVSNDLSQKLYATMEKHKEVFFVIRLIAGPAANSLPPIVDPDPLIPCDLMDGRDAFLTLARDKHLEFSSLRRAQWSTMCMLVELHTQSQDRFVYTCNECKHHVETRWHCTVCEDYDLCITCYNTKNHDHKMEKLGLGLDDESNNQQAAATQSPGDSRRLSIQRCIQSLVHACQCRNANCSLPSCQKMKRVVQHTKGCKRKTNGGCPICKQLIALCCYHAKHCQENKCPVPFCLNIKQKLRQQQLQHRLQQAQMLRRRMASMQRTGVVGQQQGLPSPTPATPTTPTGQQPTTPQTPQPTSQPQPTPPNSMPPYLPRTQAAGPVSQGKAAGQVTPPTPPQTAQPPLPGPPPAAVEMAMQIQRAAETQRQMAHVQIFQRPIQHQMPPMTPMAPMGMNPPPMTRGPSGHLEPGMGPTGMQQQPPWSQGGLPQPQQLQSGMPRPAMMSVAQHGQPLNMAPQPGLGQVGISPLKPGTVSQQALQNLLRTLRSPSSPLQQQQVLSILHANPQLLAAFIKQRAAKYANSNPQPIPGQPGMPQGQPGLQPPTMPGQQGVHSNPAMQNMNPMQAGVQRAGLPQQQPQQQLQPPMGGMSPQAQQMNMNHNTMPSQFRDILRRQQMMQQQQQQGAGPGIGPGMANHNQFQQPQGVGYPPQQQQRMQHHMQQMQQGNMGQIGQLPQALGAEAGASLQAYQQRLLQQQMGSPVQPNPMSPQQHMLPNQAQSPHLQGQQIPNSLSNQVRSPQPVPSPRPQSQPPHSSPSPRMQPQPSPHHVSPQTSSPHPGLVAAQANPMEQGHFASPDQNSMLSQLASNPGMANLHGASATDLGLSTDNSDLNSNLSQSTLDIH

`CC(=O)N1CCc2c(c(N3CCCc4cc(-c5cnn(C)c5)c(C(F)F)cc43)nn2C2CCN(C(=O)CN3CCC(CCc4cccc5c4n(C)c(=O)n5C4CCC(=O)NC4=O)CC3)CC2)C1` (centres unmarked) [P-228, 3-(4-(2-(1-(2-(4-(5-acetyl-3-(7-(difluoromethyl)-6-(1-methyl-1H-pyrazol-4-yl)-3,4-dihydroquinolin-1(2H)-yl)-4,5,6,7-tetrahydro-1H-pyrazolo[4,3-c]pyridin-1-yl)piperidin-1-yl)-2-oxoethyl)piperidin-4-yl)ethyl)-3-methyl-2-oxo-2,3-dihydro-1H-benzo[d]imidazol-1-yl)piperidine-2,6-dione]: the IC50 in assay [1] came to 0.3 nM. Further, in assay [2], the inhibition at 0.01 µM is above 80%.
Consider `CC(=O)N1CCc2c(c(N3CCCc4cc(-c5cnn(C)c5)c(C(F)F)cc43)nn2C2CCN(C(=O)CCCN3CCC(C#Cc4cccc5c4n(C)c(=O)n5C4CCC(=O)NC4=O)CC3)CC2)C1` (centres unmarked) [P-229, 3-(4-((1-(4-(4-(5-acetyl-3-(7-(difluoromethyl)-6-(1-methyl-1H-pyrazol-4-yl)-3,4-dihydroquinolin-1(2H)-yl)-4,5,6,7-tetrahydro-1H-pyrazolo[4,3-c]pyridin-1-yl)piperidin-1-yl)-4-oxobutyl)piperidin-4-yl)ethynyl)-3-methyl-2-oxo-2,3-dihydro-1H-benzo[d]imidazol-1-yl)piperidine-2,6-dione], for which, in assay [1], the midpoint of inhibition, the IC50, lay at 0.4 nM. For the same compound, the inhibition at 0.01 µM in assay [2] is above 80%.
For `CC(=O)N1CCc2c(c(N3CCCc4cc(-c5cnn(C)c5)c(C(F)F)cc43)nn2C2CCN(C(=O)CCCN3CCC(CCc4cccc5c4n(C)c(=O)n5C4CCC(=O)NC4=O)CC3)CC2)C1` (centres unmarked) [P-230, 3-(4-(2-(1-(4-(4-(5-Acetyl-3-(7-(difluoromethyl)-6-(1-methyl-1H-pyrazol-4-yl)-3,4-dihydroquinolin-1(2H)-yl)-4,5,6,7-tetrahydro-1H-pyrazolo[4,3-c]pyridin-1-yl)piperidin-1-yl)-4-oxobutyl)piperidin-4-yl)ethyl)-3-methyl-2-oxo-2,3-dihydro-1H-benzo[d]imidazol-1-yl)piperidine-2,6-dione], in that order: 17.1 nM and above 80%.
The matching figures for `CC(=O)N1CCc2c(c(N3CCCc4cc(-c5cnn(C)c5)c(C(F)F)cc43)nn2C2CCN(C(=O)CCN3CCC(C#Cc4cccc5c4n(C)c(=O)n5C4CCC(=O)NC4=O)CC3)CC2)C1` (centres unmarked) [P-231, 3-(4-((1-(3-(4-(5-acetyl-3-(7-(difluoromethyl)-6-(1-methyl-1H-pyrazol-4-yl)-3,4-dihydroquinolin-1(2H)-yl)-4,5,6,7-tetrahydro-1H-pyrazolo[4,3-c]pyridin-1-yl)piperidin-1-yl)-3-oxopropyl)piperidin-4-yl)ethynyl)-3-methyl-2-oxo-2,3-dihydro-1H-benzo[d]imidazol-1-yl)piperidine-2,6-dione]: 1.3 nM and above 80%.
As for `CC(=O)N1CCc2c(c(N3CCCc4cc(-c5cnn(C)c5)c(C(F)F)cc43)nn2C2CCN(C(=O)CCN3CCC(CCc4cccc5c4n(C)c(=O)n5C4CCC(=O)NC4=O)CC3)CC2)C1` (centres unmarked) [P-232, 3-(4-(2-(1-(3-(4-(5-Acetyl-3-(7-(difluoromethyl)-6-(1-methyl-1H-pyrazol-4-yl)-3,4-dihydroquinolin-1(2H)-yl)-4,5,6,7-tetrahydro-1H-pyrazolo[4,3-c]pyridin-1-yl)piperidin-1-yl)-3-oxopropyl)piperidin-4-yl)ethyl)-3-methyl-2-oxo-2,3-dihydro-1H-benzo[d]imidazol-1-yl)piperidine-2,6-dione], the IC50 in assay [1] worked out at 12.9 nM. Besides, the inhibition at 0.01 µM in assay [2] is above 80%.
For `CC(=O)N1CCc2c(c(N3CCCc4cc(-c5cnn(C)c5)c(C(F)F)cc43)nn2C2CCN(C(=O)CCN3CCN(CC#Cc4ccc5c(c4)n(C)c(=O)n5C4CCC(=O)NC4=O)CC3)CC2)C1` (centres unmarked) [P-233, 3-(5-(3-(4-(3-(4-(5-Acetyl-3-(7-(difluoromethyl)-6-(1-methyl-1H-pyrazol-4-yl)-3,4-dihydroquinolin-1(2H)-yl)-4,5,6,7-tetrahydro-1H-pyrazolo[4,3-c]pyridin-1-yl)piperidin-1-yl)-3-oxopropyl)piperazin-1-yl)prop-1-yn-1-yl)-3-methyl-2-oxo-2,3-dihydro-1H-benzo[d]imidazol-1-yl)piperidine-2,6-dione], in that order: 18.2 nM and 50 to 80%.
For `CC(=O)N1CCc2c(c(N3CCCc4cc(-c5cnn(C)c5)c(C(F)F)cc43)nn2C2CCN(C(=O)CCN3CCN(CCCc4ccc5c(c4)n(C)c(=O)n5C4CCC(=O)NC4=O)CC3)CC2)C1` (centres unmarked) [P-234, 3-(5-(3-(4-(3-(4-(5-acetyl-3-(7-(difluoromethyl)-6-(1-methyl-1H-pyrazol-4-yl)-3,4-dihydroquinolin-1(2H)-yl)-4,5,6,7-tetrahydro-1H-pyrazolo[4,3-c]pyridin-1-yl)piperidin-1-yl)-3-oxopropyl)piperazin-1-yl)propyl)-3-methyl-2-oxo-2,3-dihydro-1H-benzo[d]imidazol-1-yl)piperidine-2,6-dione], in assay [1], the IC50 was found to be 6.8 nM. For the same compound, the inhibition at 0.01 µM in assay [2] is above 80%.
The matching figures for `CC(=O)N1CCc2c(c(N3CCCc4cc(-c5cnn(C)c5)c(C(F)F)cc43)nn2C2CCN(CCCN3CCC(Cn4c(=O)n(C5CCC(=O)NC5=O)c5ccccc54)CC3)CC2)C1` (centres unmarked) [P-235, 3-(3-((1-(3-(4-(5-Acetyl-3-(7-(difluoromethyl)-6-(1-methyl-1H-pyrazol-4-yl)-3,4-dihydroquinolin-1(2H)-yl)-4,5,6,7-tetrahydro-1H-pyrazolo[4,3-c]pyridin-1-yl)piperidin-1-yl)propyl)piperidin-4-yl)methyl)-2-oxo-2,3-dihydro-1H-benzo[d]imidazol-1-yl)piperidine-2,6-dione]: 844 nM and below 20%.
On to `CC(=O)N1CCc2c(c(N3CCCc4cc(-c5cnn(C)c5)c(C(F)F)cc43)nn2C2CCN(C(=O)CN3CCN(CCCc4cccc5c4n(C)c(=O)n5C4CCC(=O)NC4=O)CC3)CC2)C1` (centres unmarked) [P-237, 3-(4-(3-(4-(2-(4-(5-Acetyl-3-(7-(difluoromethyl)-6-(1-methyl-1H-pyrazol-4-yl)-3,4-dihydroquinolin-1(2H)-yl)-4,5,6,7-tetrahydro-1H-pyrazolo[4,3-c]pyridin-1-yl)piperidin-1-yl)-2-oxoethyl)piperazin-1-yl)propyl)-3-methyl-2-oxo-2,3-dihydro-1H-benzo[d]imidazol-1-yl)piperidine-2,6-dione], for which the IC50 in assay [1] was found to be 307 nM. Besides, the inhibition at 0.01 µM in assay [2] lay in the range of 20 to 50%.
The matching figures for `CC(=O)N1CCc2c(c(N3CCCc4cc(-c5cnn(C)c5)c(C(F)F)cc43)nn2C2CCN(C(=O)CCN3CCN(CC#Cc4cccc5c4n(C)c(=O)n5C4CCC(=O)NC4=O)CC3)CC2)C1` (centres unmarked) [P-238, 3-(4-(3-(4-(3-(4-(5-Acetyl-3-(7-(difluoromethyl)-6-(1-methyl-1H-pyrazol-4-yl)-3,4-dihydroquinolin-1(2H)-yl)-4,5,6,7-tetrahydro-1H-pyrazolo[4,3-c]pyridin-1-yl)piperidin-1-yl)-3-oxopropyl)piperazin-1-yl)prop-1-yn-1-yl)-3-methyl-2-oxo-2,3-dihydro-1H-benzo[d]imidazol-1-yl)piperidine-2,6-dione]: 81.1 nM and 20 to 50%.

For the origin of these results see patent publication US20240100170A1, “CYCLIC-AMP RESPONSE ELEMENT BINDING PROTEIN (CBP) AND/OR ADENOVIRAL E1A BINDING PROTEIN OF 300 KDA (P300) DEGRADATION COMPOUNDS AND METHODS OF USE” (CULLGEN (SHANGHAI), INC., priority 2020, published 2024).
